Results: US4175081A, “5-Substituted thiadiazole ureas” (priority 1977, dated 1979)

How the values were obtained:
Crabgrass (CG) [1] = test: Pre-emergence herbicide test; format: in vivo, Digitaria sanquinalis; conditions: Digitaria sanguinalis, pre-emergence, 336 h; 8 lb/acre; two weeks after treatment
Procedure, shortened: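 Crabgrass (Digitaria sanquinalis) was surface seeded in 3' plastic pots of potting soil, covered with screened soil, and watered by sub-irrigation in greenhouse trays. Pots were seeded one day before spraying in a hood with a moving belt and fixed nozzle. Plants stayed in the greenhouse on sub-irrigation, and pre-emergence control was rated visually two weeks after treatment.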

Johnson grass (JG) [2] = test: Pre-emergence herbicide test; format: in vivo, Sorgum helepense; conditions: Sorghum halepense, 336 h, 8 lb/acre, two weeks after treatment
Procedure, shortened: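 Pots seeded one day before spraying; compound applied pre-emergence at 8 lbs/acre (or 4 lbs/acre) in 38 gallons/acre spray volume. Sub-irrigated in greenhouse; injury/control rated visually two weeks after treatment.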

Barnyard grass (BG) [3] = test: Pre-emergence herbicide test; format: in vivo; conditions: Echinochloa crus-galli, 336 h, 8 lb/acre, two weeks after treatment
Procedure, shortened: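 Barnyard grass surface-seeded in potting soil and sprayed pre-emergence one day after seeding, at 8 or 4 lb compound/acre in 38 gal/acre spray volume. Pots kept in greenhouse with sub-irrigation only; injury or control rated visually two weeks after treatment.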

Amaranth pigweed (PW) [4] = test: Pre-emergence herbicide test; format: in vivo, Amaranthus retroflexus; conditions: 336 h, 8 lb/acre, two weeks after treatment
Procedure, shortened: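 Pigweed was surface-seeded in potted soil one day before spraying at 8 lbs compound per acre, or 4 lbs/acre, in 38 gallons per acre. Pots were kept in the greenhouse with sub-irrigation only; injury or control was rated visually two weeks after treatment.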

Turnip (TP) [5] = test: Pre-emergence herbicide test; format: in vivo, Brassica sp.; conditions: Brassica rapa, pre-emergence, 336 h; 8 lb/acre; two weeks after treatment
Procedure, shortened: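 Turnip (Brassica sp.) seeds were surface sown in 3' plastic pots of potting soil, covered with a thin layer of screened soil, and sub-irrigated in greenhouse trays. Pots were seeded one day ahead of treatment, sprayed pre-emergence under a hood with a fixed nozzle and moving belt, then kept in the greenhouse.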

Cotton (CT) [6] = test: Pre-emergence herbicide test; format: in vivo, Gossypium hirsutum var. DPL smooth leaf; conditions: Gossypium hirsutum, 336 h, 8 lb/acre, two weeks after treatment
Procedure, shortened: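 Crop and weed species seeded one day before treatment, then sprayed pre-emergence at 8 lbs actual compound per acre (also 4 lbs/acre formulations) in 38 gallons per acre. Pots kept in greenhouse with sub-irrigation only; injury or control visually rated two weeks after treatment.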

Corn (CN) [7] = test: Pre-emergence herbicide test; format: in vivo; conditions: Zea mays, 336 h, 8 lb/acre, two weeks after treatment
Procedure, shortened: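 Four corn seeds per pot, sown at seed-diameter depth one day before spraying, got soil surface treatment at 8 lbs/acre (4 lbs/acre formulations also prepared) in 38 gallons/acre. Pots were greenhouse-held with sub-irrigation only. Injury or control was scored visually two weeks after treatment.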

Bean (BN) [8] = test: Pre-emergence herbicide test; format: in vivo, Phaseolus vulgaris var. Black Valentine; conditions: Phaseolus vulgaris, 336 h, 8 lb/acre, two weeks after treatment
Procedure, shortened: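 Black Valentine bean was seeded in potting soil one day before spraying. Compound was applied pre-emergence at 8 lbs/acre (also 4 lbs/acre) in 38 gallons per acre. Plants were sub-irrigated and injury or control was rated visually after two weeks.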

Crabgrass (CG) [9] = test: Post-emergence herbicide test; format: in vivo, Digitaria sanquinalis; conditions: Digitaria sanguinalis, post-emergence, 336 h; 8 lb/acre; two weeks after treatment
Procedure, shortened: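 Crabgrass (Digitaria sanquinalis) was surface seeded individually in 3' plastic pots of potting soil, covered with screened soil, and watered by sub-irrigation in greenhouse trays. Planting was staggered so seedlings reached the target stage together. Post-emergence sprays were applied in a hood with a removable belt and fixed nozzle, and control was visually rated two weeks after treatment.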

[10] = system: Yellow foxtail grass (YF); test: Post-emergence herbicide test; format: in vivo, Setaria glauca; conditions: Setaria, 336 h, 8 lb/acre, two weeks after treatment
Procedure: (§1) Yellow foxtail grass (YF)--Setaria glauca
(§2) All crop and weed species were planted individually in 3' plastic pots containing potting soil. Four seeds each of corn, cotton, and snapbeans were seeded to a depth equal to the diameter of the seed. All other species were surface seeded and sprinkled with screened soil in an amount sufficient to cover the seed. Immediately after planting, all pots were watered by sub-irrigation in greenhouse trays. Pots for the pre-emergence phase were seeded one day before treatment.
Planting dates for the post-emergence phase were varied so that all seedlings would reach the desired stage of development simultaneously. The proper stage of seedling development for treatment in the post-emergence phase is as follows:
(§3) Compounds were tested at rates of application equivalent to 8 lbs. of actual compound per acre in a spray volume of 38 gallons per acre. Spray hood constants required to deliver the above volume are as follows:
(§4) Formulations for spray applications were prepared in 50 ml volumes with the following three components:
(§5) Formulations for the 4 lbs/acre rate were prepared by adjusting the amount of active ingredient accordingly.
(§6) Spray applications were made in a hood containing a removable belt and fixed spray nozzle. For passage through the spray hood, one pot of each specie (pre-emergence phase) was placed on the rear half of the flat. Treatments were removed to the greenhouse after spraying. Watering during the observation period was done only by sub-irrigation.
(§7) Two weeks after treatment, pre- and post-emergence injury or control was visually rated, and the results were as shown in the following tables. Pre-emergence data are provided in TABLE III and post-emergence data are provided in TABLE IV, for compounds having the formula illustrated in TABLE I. Correspondingly, pre-emergence and post-emergence data, respectively, are set forth in TABLES V AND VI, for compounds having the formula illustrated in TABLE II.

Johnson grass (JG) [11] = test: Post-emergence herbicide test; format: in vivo, Sorgum helepense; conditions: Sorghum halepense, 336 h, 8 lb/acre, two weeks after treatment
Procedure, shortened: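 Greenhouse pot-grown seedlings sprayed post-emergence at 8 lbs compound per acre (some at 4 lbs/acre) in 38 gallons per acre spray volume. Sub-irrigated thereafter. Injury/control rated visually two weeks after treatment.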

Barnyard grass (BG) [12] = test: Post-emergence herbicide test; format: in vivo; conditions: Echinochloa crus-galli, 336 h, 8 lb/acre, two weeks after treatment
Procedure, shortened: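 Greenhouse pot-grown barnyard grass seedlings sprayed post-emergence at 8 lbs active compound per acre (some at 4 lbs/acre) in 38 gallons per acre, then sub-irrigated. Injury or control rated visually two weeks after treatment.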

Amaranth pigweed (PW) [13] = test: Post-emergence herbicide test; format: in vivo, Amaranthus retroflexus; conditions: 336 h, 8 lb/acre, two weeks after treatment
Procedure, shortened: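 Pot-grown pigweed was sprayed post-emergence at the 1–2 true-leaf stage with compound at rates equivalent to 8 lbs per acre (formulations also prepared for 4 lbs/acre) in 38 gallons per acre, using a hood with fixed nozzle. Plants were sub-irrigated in the greenhouse, and injury or control was rated visually two weeks after treatment.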

Turnip (TP) [14] = test: Post-emergence herbicide test; format: in vivo, Brassica sp.; conditions: Brassica rapa, post-emergence, 336 h; 8 lb/acre; two weeks after treatment
Procedure, shortened: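 A greenhouse post-emergence herbicide test on turnip. Seeds were sown on the surface of potting soil in 3' plastic pots, lightly covered with screened soil and watered from below. Planting was timed so seedlings had 1 or 2 true leaves above the cotyledons at spraying, done in a hood with a fixed nozzle. Control or injury was scored by eye after two weeks.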

Cotton (CT) [15] = test: Post-emergence herbicide test; format: in vivo, Gossypium hirsutum var. DPL smooth leaf; conditions: Gossypium hirsutum, post-emergence, 336 h; 8 lb/acre; two weeks after treatment
Procedure, shortened: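 Cotton (Gossypium hirsutum var. DPL smooth leaf) was grown in 3' plastic pots of potting soil, four seeds per pot, planted at a depth equal to the seed diameter and watered by sub-irrigation. At the stage of expanded cotyledons with the first true leaf 1' long, plants were sprayed post-emergence in a hood with a fixed nozzle over a moving belt. Percent control was rated visually two weeks later.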

Corn (CN) [16] = test: Post-emergence herbicide test; format: in vivo; conditions: Zea mays, 336 h, 8 lb/acre, two weeks after treatment
Procedure, shortened: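 Greenhouse seedlings grown in potting soil and sprayed post-emergence at 8 lbs compound/acre (formulations also made for 4 lbs/acre) in 38 gallons/acre spray volume. Watering by sub-irrigation only. Injury or control rated visually two weeks after treatment.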

Bean (BN) [17] = test: Post-emergence herbicide test; format: in vivo, Phaseolus vulgaris var. Black Valentine; conditions: Phaseolus vulgaris, post-emergence, 336 h; 8 lb/acre; two weeks after treatment
Procedure, shortened: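 Snapbean (Phaseolus vulgaris var. Black Valentine) was tested post-emergence. Four seeds were sown in 3' plastic pots of potting soil at a depth equal to the seed diameter, then sub-irrigated in greenhouse trays. Planting dates were staggered so plants were sprayed once primary leaves had expanded, with the growing point at the primary leaf nodes.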

[18] = system: Yellow foxtail grass (YF); test: Pre-emergence herbicide test; format: in vivo, Setaria glauca; conditions: Setaria, 336 h, 8 lb/acre, two weeks after treatment
Procedure: as §1, §2, §3, §4, §5, §6, §7

Row | Structure (SMILES) | pest or weed control at 8966.8 g/ha (Crabgrass (CG) [1]) [%] | pest or weed control at 8966.8 g/ha (Johnson grass (JG) [2]) [%] | pest or weed control at 8966.8 g/ha (Barnyard grass (BG) [3]) [%] | pest or weed control at 8966.8 g/ha (Amaranth pigweed (PW) [4]) [%] | pest or weed control at 8966.8 g/ha (Turnip (TP) [5]) [%] | pest or weed control at 8966.8 g/ha (Cotton (CT) [6]) [%] | pest or weed control at 8966.8 g/ha (Corn (CN) [7]) [%] | pest or weed control at 8966.8 g/ha (Bean (BN) [8]) [%] | pest or weed control at 8966.8 g/ha (Crabgrass (CG) [9]) [%] | pest or weed control at 8966.8 g/ha [10] [%] | pest or weed control at 8966.8 g/ha (Johnson grass (JG) [11]) [%] | pest or weed control at 8966.8 g/ha (Barnyard grass (BG) [12]) [%] | pest or weed control at 8966.8 g/ha (Amaranth pigweed (PW) [13]) [%] | pest or weed control at 8966.8 g/ha (Turnip (TP) [14]) [%] | pest or weed control at 8966.8 g/ha (Cotton (CT) [15]) [%] | pest or weed control at 8966.8 g/ha (Corn (CN) [16]) [%] | pest or weed control at 8966.8 g/ha (Bean (BN) [17]) [%] | pest or weed control at 8966.8 g/ha [18] [%]
1 | CNC(=O)Nc1nnc(C)s1 [Example 18] | 10 | 10 | 20 | 10 | 50 | 30 | 30 | 50 | 20 | 20 | 20 | 20 | 40 | 40 | 50 | 20 | 50 | 
2 | CNC(=O)Nc1nnc(-c2ccccc2)s1 [Example 34] | 10 | 20 | 10 |  | 20 | 40 | 10 | 80 | 10 | 30 | 30 | 10 | 20 | 40 | 50 | 50 | 60 | 20
3 | CNC(=O)Nc1nnc(-c2ccc(Cl)cc2)s1 [Example 71] | 0 | 0 | 20 |  | 0 | 90 | 0 | 50 | 20 | 30 | 20 | 20 | 20 | 20 | 0 | 0 | 50 | 0
